These results are taken from PMC6199744, “Development of Chemical Proteomics for the Folateome and Analysis of the Kinetoplastid Folateome” (ACS Infectious Diseases, 2018).

Holding throughout (format): binding
The target in test [1] is T1, HeLa cell extract proteins (Homo sapiens, UniProt P17812).
T1 construct: endogenous in cells; host or cells: HeLa cell extract
T1 sequence (P17812 1-591): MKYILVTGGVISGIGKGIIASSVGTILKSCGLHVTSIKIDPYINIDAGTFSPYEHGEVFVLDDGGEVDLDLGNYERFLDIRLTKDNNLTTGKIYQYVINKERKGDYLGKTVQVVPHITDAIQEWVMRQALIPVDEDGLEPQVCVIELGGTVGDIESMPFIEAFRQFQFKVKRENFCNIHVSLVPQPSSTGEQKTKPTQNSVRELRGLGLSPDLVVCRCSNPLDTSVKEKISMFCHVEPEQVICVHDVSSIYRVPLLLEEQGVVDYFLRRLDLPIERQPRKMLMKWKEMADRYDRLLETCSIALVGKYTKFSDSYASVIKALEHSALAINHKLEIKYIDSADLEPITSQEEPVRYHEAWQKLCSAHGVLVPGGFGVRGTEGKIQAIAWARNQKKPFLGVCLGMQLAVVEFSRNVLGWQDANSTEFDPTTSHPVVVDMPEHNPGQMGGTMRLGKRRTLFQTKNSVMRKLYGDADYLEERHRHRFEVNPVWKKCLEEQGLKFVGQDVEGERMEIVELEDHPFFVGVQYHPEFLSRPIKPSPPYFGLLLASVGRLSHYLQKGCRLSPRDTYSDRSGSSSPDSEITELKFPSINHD

Test [2] deals with T2, HeLa cell extract proteins (Homo sapiens, UniProt P53621).
T2 construct: endogenous in cells; host or cells: HeLa cell extract
T2 sequence (P53621 1-1224): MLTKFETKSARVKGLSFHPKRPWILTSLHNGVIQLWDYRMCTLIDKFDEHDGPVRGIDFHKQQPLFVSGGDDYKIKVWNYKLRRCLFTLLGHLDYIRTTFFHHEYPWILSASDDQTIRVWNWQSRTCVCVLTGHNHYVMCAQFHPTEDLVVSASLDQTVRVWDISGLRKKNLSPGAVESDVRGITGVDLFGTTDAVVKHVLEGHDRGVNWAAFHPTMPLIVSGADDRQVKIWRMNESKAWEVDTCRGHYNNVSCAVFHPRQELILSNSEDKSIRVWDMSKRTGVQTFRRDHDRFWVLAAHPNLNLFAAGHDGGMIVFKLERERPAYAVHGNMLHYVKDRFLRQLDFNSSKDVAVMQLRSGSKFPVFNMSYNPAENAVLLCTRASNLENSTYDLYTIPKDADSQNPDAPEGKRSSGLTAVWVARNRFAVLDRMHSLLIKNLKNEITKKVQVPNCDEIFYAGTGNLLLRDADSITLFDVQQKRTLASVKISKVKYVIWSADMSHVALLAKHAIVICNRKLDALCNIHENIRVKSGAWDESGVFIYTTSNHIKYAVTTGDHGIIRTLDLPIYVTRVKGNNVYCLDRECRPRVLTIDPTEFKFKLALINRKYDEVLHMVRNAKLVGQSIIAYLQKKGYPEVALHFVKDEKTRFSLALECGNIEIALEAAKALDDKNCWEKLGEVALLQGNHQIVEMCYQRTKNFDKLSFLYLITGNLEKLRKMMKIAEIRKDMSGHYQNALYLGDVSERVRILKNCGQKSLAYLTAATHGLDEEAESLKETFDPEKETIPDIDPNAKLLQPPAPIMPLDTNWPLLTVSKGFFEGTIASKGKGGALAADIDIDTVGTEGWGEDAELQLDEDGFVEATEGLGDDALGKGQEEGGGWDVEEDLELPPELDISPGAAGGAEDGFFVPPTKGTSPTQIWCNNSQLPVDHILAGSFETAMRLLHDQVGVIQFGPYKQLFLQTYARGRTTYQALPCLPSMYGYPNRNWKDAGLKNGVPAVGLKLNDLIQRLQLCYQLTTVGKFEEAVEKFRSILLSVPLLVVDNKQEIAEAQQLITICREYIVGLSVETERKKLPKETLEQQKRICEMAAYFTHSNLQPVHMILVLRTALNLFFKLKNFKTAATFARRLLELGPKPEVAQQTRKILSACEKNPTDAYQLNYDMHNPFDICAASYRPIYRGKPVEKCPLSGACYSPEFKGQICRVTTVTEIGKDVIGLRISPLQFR

Test [3] deals with T3, HeLa cell extract proteins (Homo sapiens, UniProt Q9NVE7).
T3 construct: endogenous in cells; host or cells: HeLa cell extract
T3 sequence (Q9NVE7 1-773): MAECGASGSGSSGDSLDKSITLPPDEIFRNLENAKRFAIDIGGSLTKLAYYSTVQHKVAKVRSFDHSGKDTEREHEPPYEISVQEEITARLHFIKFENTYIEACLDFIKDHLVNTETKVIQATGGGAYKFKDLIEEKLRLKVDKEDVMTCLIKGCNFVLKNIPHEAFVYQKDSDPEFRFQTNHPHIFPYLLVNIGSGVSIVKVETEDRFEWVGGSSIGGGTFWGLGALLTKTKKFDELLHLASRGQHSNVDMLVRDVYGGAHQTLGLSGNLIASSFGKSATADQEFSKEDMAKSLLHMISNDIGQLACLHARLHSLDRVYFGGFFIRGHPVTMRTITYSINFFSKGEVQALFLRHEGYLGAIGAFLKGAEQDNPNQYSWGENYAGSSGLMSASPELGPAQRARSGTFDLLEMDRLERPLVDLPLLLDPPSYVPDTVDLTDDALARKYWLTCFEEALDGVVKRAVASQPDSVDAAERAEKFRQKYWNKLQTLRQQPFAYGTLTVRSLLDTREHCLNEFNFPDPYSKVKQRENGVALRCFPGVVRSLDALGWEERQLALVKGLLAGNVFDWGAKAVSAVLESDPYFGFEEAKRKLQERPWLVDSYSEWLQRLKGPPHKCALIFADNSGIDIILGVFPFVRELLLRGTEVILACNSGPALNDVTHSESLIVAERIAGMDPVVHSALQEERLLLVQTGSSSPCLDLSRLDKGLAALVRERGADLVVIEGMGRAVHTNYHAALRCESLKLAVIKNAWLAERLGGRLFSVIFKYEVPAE

Read-outs that look alike come from different tables or passages of the source.

For the compound `Nc1nc2c(c(=O)[nH]1)N(C=O)C(CNc1ccc(C(=O)N[C@@H](CCC(=O)O)C(=O)O)cc1)CN2` (stereo partly drawn) [LEU, leucovorin], the “fold changes relative to vehicle control” value was 0.93 in test [1] (HeLa, protein CTPS); 0.81 in test [2] (protein COPA, HeLa); 0.97 in test [3] (HeLa, captured protein PANK4).
Take `Nc1nc2[nH]cc(CCc3ccc(C(=O)N[C@@H](CCC(=O)O)C(=O)O)cc3)c2c(=O)[nH]1` [PTX, pemetrexed]: the “fold changes relative to vehicle control” value in test [1] worked out at 0.85; in test [2], 0.82; in test [3] it was 0.93.
As to `CCCCCCOc1ccc(Cc2cnc(N)nc2N)cc1` [compound 1], the “fold changes relative to vehicle control” value is 0.99 in test [1] (HeLa, protein CTPS); 1.07 in test [2] (protein COPA, HeLa); 0.98 in test [3] (captured protein PANK4, HeLa).
For the compound `CCCCCCOc1cccc(Cc2cnc(N)nc2N)c1` [compound 2], the “fold changes relative to vehicle control” value stood at 1.09 in test [1] (HeLa, protein CTPS); 1.31 in test [2] (protein COPA, HeLa); 1.12 in test [3] (captured protein PANK4, HeLa).
On to `Nc1nc2cccc(-c3ccccc3)c2n1Cc1ccc(Cl)c(Cl)c1` [compound 3], for which the “fold changes relative to vehicle control” value in test [1] (HeLa, protein CTPS) is given as 0.95; in test [2] (protein COPA, HeLa) it was 0.93; in test [3] (captured protein PANK4, HeLa), 1.02.
Consider `NCCOCCOCC(=O)Nc1nc2ncc(CNc3ccc(C(=O)NC(CCC(=O)O)C(=O)O)cc3)nc2c(=O)[nH]1` (stereo not drawn) [compound 6], for which the “fold changes relative to vehicle control” value in test [1] (HeLa, protein CTPS) came out at 0.95; in test [2] (protein COPA, HeLa), 1; in test [3] (HeLa, captured protein PANK4), 0.96.
For `NCCCNc1ccc(C(=O)NC(CCC(=O)O)C(=O)O)cc1` (stereo not drawn) [compound 7] the same measures were 0.98, 0.89 and 1.04.
